# Test results: PubChem BioAssay AID1745844 (Carcinogenic Potency Database (CPDB), 2022)
# The source made the active and inactive calls. The rule behind the calls is not given here.
# System: rodent lifetime carcinogenesis bioassay, tumor incidence TD50
# Experiment: carcinogenic potency in animals, long-term in vivo studies, CPDB compilation (AID 1745844)
compound,measurement,setting,value
COc1cc(-c2ccc(N=Nc3c(S(=O)(=O)O)cc4cc(S(=O)(=O)O)cc(N)c4c3O)c(OC)c2)ccc1N=Nc1c(S(=O)(=O)O)cc2cc(S(=O)(=O)O)cc(N)c2c1O,TD50,"rat, strain Fischer 344, females, in drinking water, site: Zymbal's gland, lesion: adenoma + carcinoma, dosed 96 weeks, study length 97 weeks",104 mg/kg/day
same,TD50,"rat, strain Fischer 344, females, in drinking water, site: Zymbal's gland, lesion: adenoma, dosed 96 weeks, study length 97 weeks",321 mg/kg/day
same,TD50,"rat, strain Fischer 344, females, in drinking water, site: Zymbal's gland, lesion: carcinoma, dosed 96 weeks, study length 97 weeks",150 mg/kg/day
same,TD50,"rat, strain Fischer 344, females, in drinking water, site: any site (literature study), lesion: several types, types named in the paper, dosed 96 weeks, study length 97 weeks",20.4 mg/kg/day
same,TD50,"rat, strain Fischer 344, females, in drinking water, site: clitoral gland, lesion: adenoma + adenoma, bilateral + carcinoma + carcinoma, bilateral, dosed 96 weeks, study length 97 weeks",46.2 mg/kg/day
same,TD50,"rat, strain Fischer 344, females, in drinking water, site: clitoral gland, lesion: adenoma + adenoma, bilateral, dosed 96 weeks, study length 97 weeks",90.1 mg/kg/day
same,TD50,"rat, strain Fischer 344, females, in drinking water, site: clitoral gland, lesion: carcinoma + carcinoma, bilateral, dosed 96 weeks, study length 97 weeks",107 mg/kg/day
same,TD50,"rat, strain Fischer 344, females, in drinking water, site: colon, ascending + clitoral gland + colon + colon, descending + duodenum + jejunum + liver + multiple organs + palate + skin + tongue + uterus, lesion: adenomatous polyp + adenoma + adenoma, bilateral + carcinoma + carcinoma, bilateral + mucinous cystadenocarcinoma + adenocarcinoma + h, dosed 96 weeks, study length 97 weeks",21.3 mg/kg/day
same,TD50,"rat, strain Fischer 344, females, in drinking water, site: colon, ascending + colon + colon, descending, lesion: adenomatous polyp, dosed 96 weeks, study length 97 weeks",491 mg/kg/day
same,TD50,"rat, strain Fischer 344, females, in drinking water, site: duodenum + jejunum, lesion: mucinous cystadenocarcinoma + adenocarcinoma, dosed 96 weeks, study length 97 weeks",997 mg/kg/day
same,TD50,"rat, strain Fischer 344, females, in drinking water, site: jejunum, lesion: adenocarcinoma + mucinous cystadenocarcinoma, dosed 96 weeks, study length 97 weeks",1180 mg/kg/day
same,TD50,"rat, strain Fischer 344, females, in drinking water, site: liver, lesion: hepatocellular adenoma + hepatocellular carcinoma + neoplastic nodule, dosed 96 weeks, study length 97 weeks",394 mg/kg/day
same,TD50,"rat, strain Fischer 344, females, in drinking water, site: liver, lesion: hepatocellular carcinoma + neoplastic nodule, dosed 96 weeks, study length 97 weeks",394 mg/kg/day
same,TD50,"rat, strain Fischer 344, females, in drinking water, site: liver, lesion: neoplastic nodule, dosed 96 weeks, study length 97 weeks",429 mg/kg/day
same,TD50,"rat, strain Fischer 344, females, in drinking water, site: multiple organs, lesion: mononuclear-cell leukemia, dosed 96 weeks, study length 97 weeks",50 mg/kg/day
same,TD50,"rat, strain Fischer 344, females, in drinking water, site: palate + tongue, lesion: squamous-cell carcinoma + squamous-cell papilloma, dosed 96 weeks, study length 97 weeks",81 mg/kg/day
same,TD50,"rat, strain Fischer 344, females, in drinking water, site: palate + tongue, lesion: squamous-cell carcinoma, dosed 96 weeks, study length 97 weeks",208 mg/kg/day
same,TD50,"rat, strain Fischer 344, females, in drinking water, site: palate + tongue, lesion: squamous-cell papilloma, dosed 96 weeks, study length 97 weeks",132 mg/kg/day
same,TD50,"rat, strain Fischer 344, females, in drinking water, site: palate, lesion: squamous-cell carcinoma, dosed 96 weeks, study length 97 weeks",456 mg/kg/day
same,TD50,"rat, strain Fischer 344, females, in drinking water, site: palate, lesion: squamous-cell papilloma, dosed 96 weeks, study length 97 weeks",157 mg/kg/day
same,TD50,"rat, strain Fischer 344, females, in drinking water, site: skin, lesion: squamous-cell carcinoma + squamous-cell papilloma, dosed 96 weeks, study length 97 weeks",158 mg/kg/day
same,TD50,"rat, strain Fischer 344, females, in drinking water, site: skin, lesion: squamous-cell papilloma, dosed 96 weeks, study length 97 weeks",174 mg/kg/day
same,TD50,"rat, strain Fischer 344, females, in drinking water, site: tongue, lesion: squamous-cell carcinoma + squamous-cell papilloma, dosed 96 weeks, study length 97 weeks",238 mg/kg/day
same,TD50,"rat, strain Fischer 344, females, in drinking water, site: tongue, lesion: squamous-cell carcinoma, dosed 96 weeks, study length 97 weeks",384 mg/kg/day
same,TD50,"rat, strain Fischer 344, females, in drinking water, site: uterus, lesion: adenocarcinoma + adenoma, dosed 96 weeks, study length 97 weeks",493 mg/kg/day
same,TD50,"rat, strain Fischer 344, females, in drinking water, site: uterus, lesion: endometrial stromal polyp + endometrial stromal sarcoma, dosed 96 weeks, study length 97 weeks",122 mg/kg/day
same,TD50,"rat, strain Fischer 344, females, in drinking water, site: uterus, lesion: endometrial stromal polyp, dosed 96 weeks, study length 97 weeks",132 mg/kg/day
same,TD50,"rat, strain Fischer 344, males, in drinking water, site: Zymbal's gland, lesion: adenoma + carcinoma, dosed 97 weeks, study length 97 weeks",89.2 mg/kg/day
same,TD50,"rat, strain Fischer 344, males, in drinking water, site: Zymbal's gland, lesion: adenoma, dosed 97 weeks, study length 97 weeks",237 mg/kg/day
same,TD50,"rat, strain Fischer 344, males, in drinking water, site: Zymbal's gland, lesion: carcinoma, dosed 97 weeks, study length 97 weeks",132 mg/kg/day
same,TD50,"rat, strain Fischer 344, males, in drinking water, site: adrenal medulla, lesion: pheochromocytoma benign, bilateral + pheochromocytoma, benign, dosed 97 weeks, study length 97 weeks",39.8 mg/kg/day
same,TD50,"rat, strain Fischer 344, males, in drinking water, site: adrenal medulla, lesion: pheochromocytoma benign, bilateral + pheochromocytoma, complex + pheochromocytoma, malignant + pheochromocytoma, benign, dosed 97 weeks, study length 97 weeks",36.6 mg/kg/day
same,TD50,"rat, strain Fischer 344, males, in drinking water, site: any site (literature study), lesion: several types, types named in the paper, dosed 97 weeks, study length 97 weeks",12 mg/kg/day
same,TD50,"rat, strain Fischer 344, males, in drinking water, site: brain, medulla + cerebrum, lesion: astrocytoma, malignant, dosed 97 weeks, study length 97 weeks",600 mg/kg/day
same,TD50,"rat, strain Fischer 344, males, in drinking water, site: colon, ascending + colon + colon, descending + jejunum + liver + palate + pharynx + preputial gland + skin + tongue + Zymbal's gland, lesion: adenomatous polyp + adenocarcinoma + mucinous cystadenocarcinoma + hepatocellular carcinoma + neoplastic nodule + squamous-cell pa, dosed 97 weeks, study length 97 weeks",11.8 mg/kg/day
same,TD50,"rat, strain Fischer 344, males, in drinking water, site: colon, ascending + colon + colon, descending, lesion: adenomatous polyp + adenocarcinoma, dosed 97 weeks, study length 97 weeks",162 mg/kg/day
same,TD50,"rat, strain Fischer 344, males, in drinking water, site: colon, ascending + colon + colon, descending, lesion: adenomatous polyp, dosed 97 weeks, study length 97 weeks",310 mg/kg/day
same,TD50,"rat, strain Fischer 344, males, in drinking water, site: colon, lesion: adenocarcinoma, dosed 97 weeks, study length 97 weeks",355 mg/kg/day
same,TD50,"rat, strain Fischer 344, males, in drinking water, site: jejunum, lesion: adenocarcinoma + adenomatous polyp + mucinous cystadenocarcinoma, dosed 97 weeks, study length 97 weeks",1630 mg/kg/day
same,TD50,"rat, strain Fischer 344, males, in drinking water, site: liver, lesion: hepatocellular adenoma + hepatocellular carcinoma + neoplastic nodule, dosed 97 weeks, study length 97 weeks",55.2 mg/kg/day
same,TD50,"rat, strain Fischer 344, males, in drinking water, site: liver, lesion: hepatocellular carcinoma + neoplastic nodule, dosed 97 weeks, study length 97 weeks",55.2 mg/kg/day
same,TD50,"rat, strain Fischer 344, males, in drinking water, site: liver, lesion: hepatocellular carcinoma, dosed 97 weeks, study length 97 weeks",375 mg/kg/day
same,TD50,"rat, strain Fischer 344, males, in drinking water, site: liver, lesion: neoplastic nodule, dosed 97 weeks, study length 97 weeks",65.3 mg/kg/day
same,TD50,"rat, strain Fischer 344, males, in drinking water, site: multiple organs, lesion: mononuclear-cell leukemia, dosed 97 weeks, study length 97 weeks",23 mg/kg/day
same,TD50,"rat, strain Fischer 344, males, in drinking water, site: palate + pharynx + tongue, lesion: squamous-cell papilloma + squamous-cell carcinoma, dosed 97 weeks, study length 97 weeks",39.3 mg/kg/day
same,TD50,"rat, strain Fischer 344, males, in drinking water, site: palate + tongue, lesion: squamous-cell papilloma, dosed 97 weeks, study length 97 weeks",43.6 mg/kg/day
same,TD50,"rat, strain Fischer 344, males, in drinking water, site: palate, lesion: squamous-cell papilloma, dosed 97 weeks, study length 97 weeks",47 mg/kg/day
same,TD50,"rat, strain Fischer 344, males, in drinking water, site: pharynx + tongue, lesion: squamous-cell carcinoma, dosed 97 weeks, study length 97 weeks",361 mg/kg/day
same,TD50,"rat, strain Fischer 344, males, in drinking water, site: pharynx, lesion: squamous-cell carcinoma, dosed 97 weeks, study length 97 weeks",466 mg/kg/day
same,TD50,"rat, strain Fischer 344, males, in drinking water, site: preputial gland, lesion: adenoma + adenoma, bilateral + carcinoma + carcinoma, bilateral, dosed 97 weeks, study length 97 weeks",55.3 mg/kg/day
same,TD50,"rat, strain Fischer 344, males, in drinking water, site: preputial gland, lesion: adenoma + adenoma, bilateral, dosed 97 weeks, study length 97 weeks",77.1 mg/kg/day
same,TD50,"rat, strain Fischer 344, males, in drinking water, site: preputial gland, lesion: carcinoma + carcinoma, bilateral, dosed 97 weeks, study length 97 weeks",207 mg/kg/day
same,TD50,"rat, strain Fischer 344, males, in drinking water, site: skin, lesion: basal-cell adenoma + basal-cell carcinoma + sebaceous adenoma, dosed 97 weeks, study length 97 weeks",18.1 mg/kg/day
same,TD50,"rat, strain Fischer 344, males, in drinking water, site: skin, lesion: basal-cell adenoma + basal-cell carcinoma, dosed 97 weeks, study length 97 weeks",19.6 mg/kg/day
same,TD50,"rat, strain Fischer 344, males, in drinking water, site: skin, lesion: basal-cell adenoma, dosed 97 weeks, study length 97 weeks",21.6 mg/kg/day
same,TD50,"rat, strain Fischer 344, males, in drinking water, site: skin, lesion: basal-cell carcinoma, dosed 97 weeks, study length 97 weeks",101 mg/kg/day
same,TD50,"rat, strain Fischer 344, males, in drinking water, site: skin, lesion: keratoacanthoma, dosed 97 weeks, study length 97 weeks",152 mg/kg/day
same,TD50,"rat, strain Fischer 344, males, in drinking water, site: skin, lesion: sebaceous adenoma, dosed 97 weeks, study length 97 weeks",108 mg/kg/day
same,TD50,"rat, strain Fischer 344, males, in drinking water, site: skin, lesion: squamous-cell carcinoma + squamous-cell papilloma, dosed 97 weeks, study length 97 weeks",51 mg/kg/day
same,TD50,"rat, strain Fischer 344, males, in drinking water, site: skin, lesion: squamous-cell carcinoma, dosed 97 weeks, study length 97 weeks",89.7 mg/kg/day
same,TD50,"rat, strain Fischer 344, males, in drinking water, site: skin, lesion: squamous-cell papilloma, dosed 97 weeks, study length 97 weeks",92.8 mg/kg/day
same,TD50,"rat, strain Fischer 344, males, in drinking water, site: subcutaneous tissue, lesion: fibroma + sarcoma, dosed 97 weeks, study length 97 weeks",131 mg/kg/day
same,TD50,"rat, strain Fischer 344, males, in drinking water, site: subcutaneous tissue, lesion: fibroma, dosed 97 weeks, study length 97 weeks",150 mg/kg/day
same,TD50,"rat, strain Fischer 344, males, in drinking water, site: testis, lesion: interstitial-cell adenoma, bilateral + interstitial-cell adenoma, dosed 97 weeks, study length 97 weeks",12.9 mg/kg/day
same,TD50,"rat, strain Fischer 344, males, in drinking water, site: thyroid gland, lesion: c-cell adenoma + c-cell adenoma, bilateral, dosed 97 weeks, study length 97 weeks",143 mg/kg/day
same,TD50,"rat, strain Fischer 344, males, in drinking water, site: thyroid gland, lesion: c-cell adenoma + c-cell carcinoma, bilateral + c-cell carcinoma + c-cell adenoma, bilateral, dosed 97 weeks, study length 97 weeks",116 mg/kg/day
same,TD50,"rat, strain Fischer 344, males, in drinking water, site: thyroid gland, lesion: follicular-cell adenoma + follicular-cell carcinoma, dosed 97 weeks, study length 97 weeks",103 mg/kg/day
same,TD50,"rat, strain Fischer 344, males, in drinking water, site: thyroid gland, lesion: follicular-cell adenoma, dosed 97 weeks, study length 97 weeks",49.7 mg/kg/day
same,TD50,"rat, strain Fischer 344, males, in drinking water, site: thyroid gland, lesion: follicular-cell carcinoma, dosed 97 weeks, study length 97 weeks",331 mg/kg/day
same,TD50,"rat, strain Fischer 344, males, in drinking water, site: tongue, lesion: squamous-cell carcinoma + squamous-cell papilloma, dosed 97 weeks, study length 97 weeks",371 mg/kg/day
CCOc1ccc(NC(=O)CC(C)O)cc1 (configuration not stated),TD50,"mouse, strain B6C3F1, females, in feed, site: liver, lesion: hepatocellular adenoma, dosed 72 weeks, study length 84 weeks",4000 mg/kg/day
same,TD50,"mouse, strain B6C3F1, females, in feed, site: lung, lesion: alveolar-cell tumor, dosed 72 weeks, study length 84 weeks",11300 mg/kg/day
same,TD50,"mouse, strain B6C3F1, males, in feed, site: all sites, lesion: lymphoma and leukemia, combined, dosed 70 weeks, study length 84 weeks",2740 mg/kg/day
same,TD50,"mouse, strain B6C3F1, males, in feed, site: kidney, lesion: renal-cell adenoma, dosed 70 weeks, study length 84 weeks",5580 mg/kg/day
same,TD50,"mouse, strain B6C3F1, males, in feed, site: kidney, lesion: renal-cell carcinoma, dosed 70 weeks, study length 84 weeks",5530 mg/kg/day
same,TD50,"mouse, strain B6C3F1, males, in feed, site: liver, lesion: hemangioma, dosed 70 weeks, study length 84 weeks",406000 mg/kg/day
same,TD50,"mouse, strain B6C3F1, males, in feed, site: liver, lesion: hepatocellular adenoma, dosed 70 weeks, study length 84 weeks",17500 mg/kg/day
same,TD50,"mouse, strain B6C3F1, males, in feed, site: lung, lesion: alveolar-cell tumor, dosed 70 weeks, study length 84 weeks",5280 mg/kg/day
same,TD50,"mouse, strain B6C3F1, males, in feed, site: urinary bladder, lesion: papilloma, dosed 70 weeks, study length 84 weeks",46400 mg/kg/day
CCCCCN(CCCCC)N=O,TD50,"rat, strain Fischer 344, females, in feed, site: liver, lesion: hepatocellular carcinoma, dosed 99 weeks, study length 104 weeks",7.57 mg/kg/day
same,TD50,"rat, strain Fischer 344, males, in feed, site: liver, lesion: hepatocellular carcinoma, dosed 89 weeks, study length 104 weeks",2.75 mg/kg/day
ClCOCCCCCCOCCl,carcinogen call,"mouse, strain Ha/ICR, females, i.p., site: abdomen, lesion: sarcoma, dosed 81 weeks, study length 81 weeks",negative (inactive)
